Source: patent publication US20170198006A1, “PRMT5 INHIBITORS AND USES THEREOF” (Epizyme, Inc., priority 2014, published 2017)

Each compound was assayed against T1, PRMT5/MEP50 (Homo sapiens, UniProt O14744) (assay: PRMT5 Biochemical Assay (PRMT5/MEP50 enzyme assay on histone H4 peptide substrate, 3H-SAM Flashplate)). Conditions: PRMT5 biochemical assay; read-out: Biochemical IC50.
T1 construct: Flag-PRMT5; made in house; host or cells: Spodoptera frugiperda (SF9), baculovirus
Excerpt: S-adenosylmethionine (SAM), S-adenosylhomocysteine (SAH), bicine, KCl, Tween20, dimethylsulfoxide (DMSO), bovine skin gelatin (BSG), and Tris(2-carboxyethyl)phosphine hydrochloride solution (TCEP) were purchased from Sigma-Aldrich at the highest level of purity possible. ^3H-SAM was purchase from American Radiolabeled Chemicals with a specific activity of 80 Ci/mmol. 384-well streptavidin Flashplates were purchased from PerkinElmer.
Peptide representative of human histone H4 residues 1-15 was synthesized with a C-terminal linker-affinity tag motif and a C-terminal amide cap by 21st Century Biochemicals.
The amplified genes were sublconed into pENTR/D/TEV (Life Technologies) and subsequently transferred by Gateway™ attL×attR recombination to pDEST8 baculvirus expression vector (Life Technologies).
Protein over-expression was accomplished by infecting exponentially growing Spodoptera frugiperda (SF9) cell culture at 1.2×10^6 cell/ml with a 5000 fold dilution of BIIC stock. Infections were carried out at 27° C. for 72 hours, harvested by centrifugation, and stored at −80° C. for purification.
Flag-PRMT5/6His-MeP50 was eluted with 300 mM Imidazole in the same buffer.
General Procedure for PRMT5/MEP50 Enzyme Assays on Peptide Substrates.
The assays were all performed in a buffer consisting of 20 mM Bicine (pH=7.6), 1 mM TCEP, 0.005% BSG, and 0.002% Tween20, prepared on the day of use. […] DMSO (1 ul) was added to Columns 11, 12, 23, 24, rows A-H for the maximum signal control and 1 ul of SAH, a known product and inhibitor of PRMT5/MEP50, was added to columns 11, 12, 23, 24, rows I-P for the minimum signal control. A cocktail (40 ul) containing the PRMT5/MEP50 enzyme and the peptide was added by Multidrop Combi (Thermo-Fisher). The compounds were allowed to incubate with PRMT5/MEP50 for 30 min at 25 degrees Celsius, then a cocktail (10 ul) containing ^3H-SAM was added to initiate the reaction (final volume=51 ul). […] The assays were stopped by the addition of non-radioactive SAM (10 ul) to a final concentration of 600 uM, which dilutes the ^3H-SAM to a level where its incorporation into the peptide substrate is no longer detectable. 50 ul of the reaction in the 384-well polypropylene plate was then transferred to a 384-well Flashplate and the biotinylated peptides were allowed to bind to the streptavidin surface for at least 1 hour before being washed three times with 0.1% Tween20 in a Biotek ELx405 plate washer. The plates were then read in a PerkinElmer TopCount plate reader to measure the quantity of ^3H-labeled peptide bound to the Flashplate surface, measured as disintegrations per minute (dpm) or alternatively, referred to as counts per minute (cpm).
Where dpm=disintegrations per minute, cmpd=signal in assay well, and min and max are the respective minimum and maximum signal controls.
Where top and bottom are the normally allowed to float, but may be fixed at 100 or 0 respectively in a 3-parameter fit. The Hill Coefficient normally allowed to float but may also be fixed at 1 in a 3-parameter fit. Y is the % inhibition and X is the compound concentration.

T1 sequence (O14744 with tags, fused parts or gaps): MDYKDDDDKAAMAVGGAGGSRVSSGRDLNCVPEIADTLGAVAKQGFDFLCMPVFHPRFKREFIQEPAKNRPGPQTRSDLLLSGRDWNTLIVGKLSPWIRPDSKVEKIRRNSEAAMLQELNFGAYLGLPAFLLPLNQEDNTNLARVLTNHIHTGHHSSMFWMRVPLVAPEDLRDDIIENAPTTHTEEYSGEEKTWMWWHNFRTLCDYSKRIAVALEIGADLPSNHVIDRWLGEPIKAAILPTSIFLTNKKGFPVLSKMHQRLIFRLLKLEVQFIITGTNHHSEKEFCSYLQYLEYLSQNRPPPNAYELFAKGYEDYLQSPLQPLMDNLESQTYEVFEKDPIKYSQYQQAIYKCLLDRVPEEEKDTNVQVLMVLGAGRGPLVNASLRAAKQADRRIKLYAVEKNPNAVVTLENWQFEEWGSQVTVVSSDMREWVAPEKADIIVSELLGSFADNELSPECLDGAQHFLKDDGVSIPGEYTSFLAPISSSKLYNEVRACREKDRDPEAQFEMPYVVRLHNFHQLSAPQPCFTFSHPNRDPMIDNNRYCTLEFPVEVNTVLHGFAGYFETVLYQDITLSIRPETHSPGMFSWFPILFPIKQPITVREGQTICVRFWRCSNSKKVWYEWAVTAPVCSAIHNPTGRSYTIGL
T1 sequence (Q9BQA1 with tags, fused parts or gaps partner limits assumed): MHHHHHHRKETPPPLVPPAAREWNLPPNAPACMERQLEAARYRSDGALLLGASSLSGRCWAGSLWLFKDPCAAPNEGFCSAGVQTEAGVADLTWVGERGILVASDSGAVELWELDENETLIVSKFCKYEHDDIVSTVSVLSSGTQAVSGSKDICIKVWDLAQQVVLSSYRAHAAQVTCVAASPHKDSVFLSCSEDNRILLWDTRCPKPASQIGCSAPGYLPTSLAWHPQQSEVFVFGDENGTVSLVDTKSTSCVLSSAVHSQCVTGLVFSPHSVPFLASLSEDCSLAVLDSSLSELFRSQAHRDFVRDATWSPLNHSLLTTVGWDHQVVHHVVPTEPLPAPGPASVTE

Structure (SMILES) | IC50 [nM]
CNCCNC[C@H]1O[C@@H](n2cnc3c(N)ncnc32)[C@H](O)[C@@H]1O [Compound 64-1] | 101 to 1000
O=C(CC1NC(N2CCc3ccccc3C2)=NC1=O)Nc1ccccc1 (stereo not shown) [Compound 13-14] | 1000 to 10000
O=C(CC1NC(N2CCN(c3ccccc3)CC2)=NC1=O)c1cccc(Cl)c1 (stereo not shown) [Compound 47-14] | 101 to 1000
CCCCNCCN(C)C[C@H]1O[C@@H](n2cnc3c(N)ncnc32)[C@H](O)[C@@H]1O [Compound 68-1] | < 100
Cc1ccc(C(=O)CC2NC(N3CCN(c4ccccc4F)CC3)=NC2=O)cc1 (stereo not shown) [Compound 30-14] | 1000 to 10000
Cc1cc(NC(=O)CC2NC(N3CCN(c4ccccc4)CC3)=NC2=O)ccc1Cl (stereo not shown) [Compound 74-14] | 1000 to 10000
CCc1ccc(NC(=O)CC2NC(N3CCN(CC)CC3)=NC2=O)cc1 (stereo not shown) [Compound 19-14] | 1000 to 10000
CCN(CCN(C)C[C@H]1O[C@@H](n2cnc3c(N)ncnc32)[C@H](O)[C@@H]1O)Cc1ccncc1 [Compound 17-1] | < 100
NCc1ncc(CCNC(=O)c2ccccc2)n1Cc1ccccc1 [Compound 7-13] | 10000 to 50000
O=C(CC1NC(N2CCN(c3ccccc3)CC2)=NC1=O)Nc1ccc2c(c1)OCO2 (stereo not shown) [Compound 65-14] | 10000 to 50000
CN(CCN(CCc1ccc(Cl)cc1)Cc1ccccc1)C[C@H]1O[C@@H](n2cnc3c(N)ncnc32)[C@H](O)[C@@H]1O [Compound 51-1] | 101 to 1000
CCN(CCc1ccc(Cl)cc1)CCN(C)C[C@H]1O[C@@H](n2cnc3c(N)ncnc32)[C@H](O)[C@@H]1O [Compound 50-1] | 101 to 1000
COc1cc(NC(=O)CC2NC(N3CCN(c4ccccc4)CC3)=NC2=O)ccc1Cl (stereo not shown) [Compound 64-14] | 1000 to 10000
COc1ccccc1C(=O)CC1NC(N2Cc3ccccc3C2)=NC1=O (stereo not shown) [Compound 71-14] | 1000 to 10000
O=C(CC1NC(N2CCN(c3ccccc3)CC2)=NC1=O)NCC1CCOCC1 (stereo not shown) [Compound 70-14] | 10000 to 50000
O=C1c2ccccc2C(=O)N1CCCSC[C@H]1C[C@@H](n2ccc3cncnc32)[C@H](O)[C@@H]1O [Compound 93-1] | 101 to 1000

Structure (SMILES) | IC50 [nM]
O=C(CC1NC(N2CCN(c3ccccc3)CC2)=NC1=O)NCC1CCCCC1 (stereo not shown) [Compound 53-14] | 1000 to 10000
CN(CCNCc1ccccc1F)C[C@H]1O[C@@H](n2cnc3c(N)ncnc32)[C@H](O)[C@@H]1O [Compound 15-1] | < 100
Cc1ccc(NC(=O)CC2NC(N3CCN(C)CC3)=NC2=O)cc1 (stereo not shown) [Compound 4-14] | 10000 to 50000
Cc1ccc(C(=O)CC2NC(N3CCc4ccccc4C3)=NC2=O)cc1 (stereo not shown) [Compound 29-14] | 101 to 1000
COc1ccc(N2CCN(C3=NC(=O)C(CC(=O)Nc4ccccc4)N3)CC2)cc1 (stereo not shown) [Compound 25-14] | 10000 to 50000
O=C(CC1NC(N2CCN(c3ccccc3)CC2)=NC1=O)c1ccccc1 (stereo not shown) [Compound 37-14] | 101 to 1000
CN(CCN1CCC(c2ccccc2)CC1)CC1OC(n2cnc3c(N)ncnc32)[C@H](O)[C@@H]1O (stereo partly shown) [Compound 43-1] | 101 to 1000
CN(CCN1CCCN(Cc2ccccc2)CC1)C[C@H]1OC(n2cnc3c(N)ncnc32)[C@H](O)[C@@H]1O (stereo partly shown) [Compound 40-1] | 101 to 1000
CC(=O)Nc1ccc(NC(=O)CC2NC(N3CCN(c4ccccc4)CC3)=NC2=O)cc1 (stereo not shown) [Compound 10-14] | 10000 to 50000
CN(CCNCc1ccc(OC(F)F)cc1)C[C@H]1O[C@@H](n2cnc3c(N)ncnc32)[C@H](O)[C@@H]1O [Compound 1-1] | 101 to 1000
O=C(CC1NC(N2CCN(c3ccccc3)CC2)=NC1=O)c1ccccc1Cl (stereo not shown) [Compound 2-6] | 101 to 1000
COc1cccc(C(=O)CC2NC(N3CCN(c4ccccc4)CC3)=NC2=O)c1 (stereo not shown) [Compound 39-14] | 101 to 1000
CN(CCNCc1ccc(Cl)cc1F)C[C@H]1O[C@@H](n2cnc3c(N)ncnc32)[C@H](O)[C@@H]1O [Compound 19-1] | 101 to 1000
Cc1cccc(CN(C)CCN(C)C[C@H]2O[C@@H](n3cnc4c(N)ncnc43)[C@H](O)[C@@H]2O)c1 [Compound 4-1] | 101 to 1000
CSC[C@H]1O[C@@H](n2cnc3c(N)ncnc32)[C@H](O)[C@@H]1O [Compound 96-1] | 101 to 1000
COc1ccccc1C(O)CC1N=C(N2CCN(c3ccccc3)CC2)NC1=O (stereo not shown) [Compound 54-14] | 10000 to 50000

Other lines, results leading:

IC50 [nM] | Structure (SMILES)
1000 to 10000 | Cc1cnc(CN)n1Cc1ccccc1 [Compound 5-13]
1000 to 10000 | Cc1ccc(C(=O)CC2NC(N3CCN(c4cccc(F)c4)CC3)=NC2=O)cc1 (stereo not shown) [Compound 31-14]
101 to 1000 | NCCN(CCC[C@H](N)CO)C[C@H]1O[C@@H](n2cnc3c(N)ncnc32)[C@H](O)[C@@H]1O [Compound 35-1]
101 to 1000 | COc1cc(CNCCN(C)C[C@H]2O[C@@H](n3cnc4c(N)ncnc43)[C@H](O)[C@@H]2O)cc(OC)c1 [Compound 11-1]
101 to 1000 | Nc1ncnc2c1ncn2[C@@H]1O[C@H](CN2CCCN(c3ccccn3)CC2)[C@@H](O)[C@H]1O [Compound 84-1]
101 to 1000 | CCN(CC)CCN(C)C[C@H]1O[C@@H](n2cnc3c(N)ncnc32)[C@H](O)[C@@H]1O [Compound 38-1]
101 to 1000 | COCCNCCN(C)C[C@H]1O[C@@H](n2cnc3c(N)ncnc32)[C@H](O)[C@@H]1O [Compound 59-1]
< 100 | NCCN(CCCCC(=O)O)C[C@H]1O[C@@H](n2cnc3c(N)ncnc32)[C@H](O)[C@@H]1O [Compound 34-1]
1000 to 10000 | Cc1ccc(C(=O)CC2NC(N3CCN(C)CC3)=NC2=O)cc1 (stereo not shown) [Compound 27-14]
101 to 1000 | O=C(CC1NC(N2CCN(c3ccccc3)CC2)=NC1=O)Nc1ccc(Br)cc1 (stereo not shown) [Compound 4-6]
101 to 1000 | O=C(CC1NC(N2CCc3ccccc3C2)=NC1=O)Nc1ccc(Cl)cc1 (stereo not shown) [Compound 56-14]
101 to 1000 | CN(CCO)CCN(C)C[C@H]1O[C@@H](n2cnc3c(N)ncnc32)[C@H](O)[C@@H]1O [Compound 46-1]
101 to 1000 | CN(C)CCN(C)C[C@H]1O[C@@H](n2cnc3c(N)ncnc32)[C@H](O)[C@@H]1O [Compound 37-1]
< 100 | CN(CCNCCc1ccccc1Cl)C[C@H]1O[C@@H](n2cnc3c(N)ncnc32)[C@H](O)[C@@H]1O [Compound 60-1]
101 to 1000 | CCC(COC)NCCN(C)C[C@H]1O[C@@H](n2cnc3c(N)ncnc32)[C@H](O)[C@@H]1O (stereo partly shown) [Compound 62-1]
1000 to 10000 | O=C(CC1NC(N2CCC(c3ccccc3)CC2)=NC1=O)Nc1ccc(Cl)cc1 (stereo not shown) [Compound 57-14]
101 to 1000 | O=C(CC1NC(N2CC=C(c3ccccc3)CC2)=NC1=O)Nc1ccc(Cl)cc1 (stereo not shown) [Compound 72-14]
< 100 | Nc1ncnc2c1ncn2[C@@H]1O[C@H](CNCCNCCc2ccc(Cl)cc2)[C@@H](O)[C@H]1O [Compound 74-1]
1000 to 10000 | COc1ccc(NC(=O)CC2NC(N3CCN(c4ccccc4)CC3)=NC2=O)cc1 (stereo not shown) [Compound 62-14]
< 100 | CN(CCNCCc1c(Cl)cccc1Cl)C[C@H]1O[C@@H](n2cnc3c(N)ncnc32)[C@H](O)[C@@H]1O [Compound 72-1]
< 100 | CC(CCCN(CCN)C[C@H]1O[C@@H](n2cnc3c(N)ncnc32)[C@H](O)[C@@H]1O)C(=O)O (stereo partly shown) [Compound 33-1]
< 100 | NCCN(CCCC(=O)O)C[C@H]1O[C@@H](n2cnc3c(N)ncnc32)[C@H](O)[C@@H]1O [Compound 31-1]
101 to 1000 | CN(CCN)C[C@H]1O[C@@H](n2cnc3c(N)ncnc32)[C@H](O)[C@@H]1O [Compound 27-1]
101 to 1000 | CN(CCNc1ccccn1)C[C@H]1O[C@@H](n2cnc3c(N)ncnc32)[C@H](O)[C@@H]1O [Compound 56-1]
10000 to 50000 | O=C(CC1NC(N2CCN(c3ccccc3)CC2)=NC1=O)NC1CCCCC1 (stereo not shown) [Compound 52-14]
101 to 1000 | CN(CCN1CCC(Oc2ccccn2)CC1)C[C@H]1OC(n2cnc3c(N)ncnc32)[C@H](O)[C@@H]1O (stereo partly shown) [Compound 41-1]
1000 to 10000 | CCN1CCN(C2=NC(=O)C(CC(=O)Nc3ccc(OC)cc3)N2)CC1 (stereo not shown) [Compound 11-14]
1000 to 10000 | CCN1CCN(C2=NC(=O)C(CC(=O)Nc3ccc(C(C)=O)cc3)N2)CC1 (stereo not shown) [Compound 14-14]
< 100 | CN(CCNCCc1ccc(O)cc1)C[C@H]1O[C@@H](n2cnc3c(N)ncnc32)[C@H](O)[C@@H]1O [Compound 70-1]
